Test [1] can be described thus: CF transport assay in anionic vesicles. Conditions: heptaArg cargo; for heptaArg Ymax, anionic vesicles / EC50: CF assay, pH 7.4; for heptaArg Ymax, anionic vesicles: DMPE/DPPG/CHOL 1/2/1 (anionic), 13 µM phospholipids, 10 mM Tris, 140 mM NaCl; for EC50 / heptaArg E, anionic vesicles: DMPE/DPPG/CHOL (anionic); for heptaArg E, anionic vesicles: f = 20.6. In kind it is biochemical. The protocol: To better mimic biological membranes, which contain negatively charged components and cholesterol, equivalent transport experiments were performed in anionic liposomes^[ [19], [20] ^] with the prototypal POM carriers, [PVW11]^4‒ and [SiMoW11]^4‒ . […] This encouraged us to transfer the experiments to CHO‐K1 (Chinese hamster ovary) cells, after we had confirmed sufficient stability of the most promising POM carriers, [PVW11]^4‒ and [SiMoW11]^4‒ , in the cellular nutrient mixture (F‐12 Ham's medium, Figures S26–S28C, Supporting Information).
Anionic vesicles were prepared analogously except for the lipid composition, DMPE/DPPG/CHOL (4.4/10.4/2.6 mg, 1/2/1 molar ratio, DMPE: 1,2‐dimyristoyl‐sn‐glycero‐3‐phosphoethanolamine; DPPG: 1,2‐dipalmitoyl‐sn‐glycero‐3‐phospho‐(1´‐rac‐glycerol); CHOL: cholesterol) in a 1:1 mixture of CHCl3 and MeOH (1 mL), the hydration (60 min) and extrusion were performed at 55 °C, and the employed buffers were 100 mM CF, 10 mM Tris, pH 7.4 and 10 mM Tris, 140 mM NaCl, pH 7.4 for rehydration and elution, respectively.
Vesicles stock solutions (5–10 µL) were diluted with the corresponding buffer in a disposable plastic cuvette and gently stirred (total volume 2000 µL, final lipid concentration 13 µM). Carboxyfluorescein fluorescence was monitored at λ em = 517 nm (λ ex = 492 nm) as a function of time after addition of POMs at 60 s, analyte at 120 s and Triton X‐100 (24 µL 1.2% wt/vol) at 600 s to lyse the vesicles, for calibration. Fluorescence intensities were normalized to fractional emission as (1) It=It−I0/I∞−I0 where I 0 = I t before POM addition and […] after lysis. For Hill analysis, I t before lysis was defined as transport activity, Y, and plotted against POM concentration, c, and fitted to the Hill Equation (2), to afford the activity in absence of POM, Y 0, the maximal activity, Y max, the concentration needed to achieve 50% of maximal activity, EC 50, and the Hill coefficient, n (2) Y=Y0+Ymax−Y0/1+EC50/c^n […]
Figure S8. Heptaarginine transport through anionic vesicles[22-23][24] (DMPE/DPPG/CHOL, 1/2/1 molar ratio) facilitated by [PVW11]4‒ (a) and [SiMoW11]4‒ (c). Transport activity as function of [PVW11]4‒ (b) and [SiMoW11]4‒ (d) concentration, solid lines correspond to the resulting fit with the Hill equation.
Table S5. Membrane transport parameters of active POMs towards different analytes and different lipid composition. […]
a) 13 µM phospholipids. b) 10 µM cargo. c) Maximal activity; ±2% error (SD). d) Effective concentration to reach 50% activity of Ymax; 5 % error (SD). e) Activation efficiency E = Ymax (pEC50/f), were pEC50 is the negative logarithm of the EC50, and f a scaling factor set to 20.6 to allocate E between 0

The nature of test [2]: U-tube transport experiment through CHCl3. Conditions: CHCl3 bulk phase; CF 100, POM 50, heptaArg 10 µM; 24 h; fluorescence. The source says:
In the U‐tube experiments, the trans phase contained only buffer, and the cis phase is loaded with combinations of CF, carrier (POM), and cargo (heptaArg). Aliquots of the trans phase are taken and evaluated by fluorescence at different times. The trans phase is initially (t = 0) nonfluorescent, but the transport of CF from the cis phase through the chloroform barrier leads to fluorescence, signaling successful transport. […] This is consistent with translocation of a POM•heptaArg•CF complex through the organic phase, in support of the mechanism in Figure 1c.
The U‐tubes were house‐made, similar to those of Rebek^[ [82] ^] and Matile,^[ [54] ^] consisting in a small beaker with a central glass barrier, separating the two aqueous layers, cis ([…]) and trans (receiving phase), but allowing an interface chloroform layer below the cis and trans phases. 3 mL CHCl3 are placed into the U‐tube and 1 mL of the cis (combinations of carrier (POM), cargo (heptaArg) and CF in buffer) and trans (1 mL buffer) phases were added. The organic phase was stirred at 700 rpm at room temperature. Aliquots (25 µL) from the trans phase were taken at different times, 400 µL of buffer were added and measured by fluorescence.

As usually defined, the EC50 is the concentration needed to bring the measured effect to its halfway point. Low values mean higher potency in that assay, high ones lower potency in that assay. “K4[α‐P^VV^VW^VI 11O40]·4H2O [[PVW11]^4‒]”: in test [1], the “heptaArg Ymax, anionic vesicles” value came to 45%; a half-maximal response (EC50) required 50 µM; the “heptaArg E, anionic vesicles” value came to 2.8. Further, the “Carrier behaviour in U-tube (CF in trans phase)” value in test [2] is on record as “act as “real” carriers”.

With “K4[α‐Si^IVMo^VIW^VI 11O40]·24H2O [[SiMoW11]^4‒]”, in test [1], the “heptaArg Ymax, anionic vesicles” value was 61%; the response was half-maximal at 60 µM (EC50); the “heptaArg E, anionic vesicles” value turned out to be 3.6. For the same substance, in test [2], the “Carrier behaviour in U-tube (CF in trans phase)” value is “act as “real” carriers”.

The values are drawn from publication PMC11475408, “All‐Inorganic Polyoxometalates Act as Superchaotropic Membrane Carriers” (Advanced Materials (Deerfield Beach, Fla.), 2023).
